Assay results from PMC4209782 (Biochemical Journal, 2014).

Key:
[1] = tested on: 4EBP1 phosphorylation (Thr37, Thr46 and Ser65); assay: 4E-BP1 phosphorylation (mTORC1 sites), immunoblot of treated U2OS cells; assay type: cell-based; details: AZD8055 0.1 μM
Procedure: (§1) U20S cell line was kindly provided by John Rouse (MRC Protein Phosphorylation and Ubiquitylation Unit, University of Dundee, Dundee, U.K.). Cells were cultured in DMEM (Dulbecco's modified Eagle's medium) supplemented with 10% (v/v) FBS, 2 mM L-glutamine, 100 U/ml penicillin and 0.1 mg/ml streptomycin. cDNA for mouse Hrs (residues 147–223 ×2 joined by a linker) were cloned into a pBABE.puro vector. […] . The virus was harvested 48 h after transfection and applied to U20S cells in the presence of 10 μg/ml polybrene. Cells were selected with 10 μg/ml puromycin before single cell colony selection to identify low expression GFP–FYVEHrs clones. U2OS Flp/In cell line was kindly provided by John Rouse. Cells were cultured in McCoy medium supplemented with 10% (v/v) FBS, 2 mM L-glutamine, 100 U/ml penicillin and 0.1 mg/ml streptomycin. Stable cell lines expressing doxycycline-inducible proteins were generated using the Flp-In™ T-REx™ system (Invitrogen). Stable transfected clones were selected using 0.01 mM hygromycin in cell medium. Protein expression was induced by adding 0.01 mg/ml doxycycline in the medium for 24 h prior to cell lysis. Inhibitor treatment was carried out as described in the Figure legends. The cells were lysed in buffer containing 50 mM Tris/HCl (pH 7.5), 150 mM NaCl, 1 mM EDTA, 1 mM EGTA, 1 mM sodium orthovanadate, 10 mM sodium glycerophosphate, 50 mM sodium fluoride, 10 mM sodium pyrophosphate, 0.27 M sucrose, 0.1% 2-mercaptoethanol, 1 mM benzamidine and 0.1 mM PMSF. Lysates were clarified by centrifugation at 16000 g for 10 min at 4°C. Protein concentration was calculated using Bradford assay (Thermo Scientific). Immunoblotting and immunoprecipitation were performed using standard procedures. The signal was developed using the ECL Western Blotting Detection kit (GE Healthcare) on Hyperfilm ECL film (GE Healthcare). […]

SGK3 = SGK3 kinase activity after immunoprecipitation from inhibitor-treated U2OS cells (Crosstide assay); assay type: cell-based
[2] = tested on: Akt (Thr308, Ser473) and Akt substrate PRAS40 (Thr246) phosphorylation; assay: Akt and PRAS40 phosphorylation, immunoblot of treated U2OS cells; assay type: cell-based; details: 1 h
Procedure: U20S cell line was kindly provided by John Rouse (MRC Protein Phosphorylation and Ubiquitylation Unit, University of Dundee, Dundee, U.K.). Cells were cultured in DMEM (Dulbecco's modified Eagle's medium) supplemented with 10% (v/v) FBS, 2 mM L-glutamine, 100 U/ml penicillin and 0.1 mg/ml streptomycin. cDNA for mouse Hrs (residues 147–223 ×2 joined by a linker) were cloned into a pBABE.puro vector. […] . The virus was harvested 48 h after transfection and applied to U20S cells in the presence of 10 μg/ml polybrene. Cells were selected with 10 μg/ml puromycin before single cell colony selection to identify low expression GFP–FYVEHrs clones. U2OS Flp/In cell line was kindly provided by John Rouse. Cells were cultured in McCoy medium supplemented with 10% (v/v) FBS, 2 mM L-glutamine, 100 U/ml penicillin and 0.1 mg/ml streptomycin. Stable cell lines expressing doxycycline-inducible proteins were generated using the Flp-In™ T-REx™ system (Invitrogen). Stable transfected clones were selected using 0.01 mM hygromycin in cell medium. Protein expression was induced by adding 0.01 mg/ml doxycycline in the medium for 24 h prior to cell lysis. Inhibitor treatment was carried out as described in the Figure legends. The cells were lysed in buffer containing 50 mM Tris/HCl (pH 7.5), 150 mM NaCl, 1 mM EDTA, 1 mM EGTA, 1 mM sodium orthovanadate, 10 mM sodium glycerophosphate, 50 mM sodium fluoride, 10 mM sodium pyrophosphate, 0.27 M sucrose, 0.1% 2-mercaptoethanol, 1 mM benzamidine and 0.1 mM PMSF. Lysates were clarified by centrifugation at 16000 g for 10 min at 4°C. Protein concentration was calculated using Bradford assay (Thermo Scientific). Immunoblotting and immunoprecipitation were performed using standard procedures. The signal was developed using the ECL Western Blotting Detection kit (GE Healthcare) on Hyperfilm ECL film (GE Healthcare).
The following antibodies were raised in sheep, by the DSTT (Division of Signal Transduction Therapy) at the University of Dundee, and affinity-purified against the indicated antigens: anti-Akt1 (S695B, third bleed; raised against residues 466–480 of human Akt1: […]), anti-PRAS40 (proline-rich Akt substrate 40 kDa) (S115B, first bleed; raised against residues 238–256 of human PRAS40: […]), anti-(phospho-PRAS40 Thr^246) (S114B, second bleed; raised against residues 240–251 of human PRAS40: CRPRLNTpSDFQK), anti-NDRG1 (N-Myc downstream-regulated gene-1) (S276B third bleed; raised against full-length human NDRG1) and anti-SGK3 [S037D second bleed; raised against human SGK3 PX domain comprising residues 1–130 of SGK3]. […] Anti-(phospho-SGK hydrophobic motif [Ser^486 in SGK3]) antibody (sc16745) was from Santa Cruz Biotechnology and total SGK1/2 antibody was from Sigma (5188) as was the mouse anti-FLAG antibody. Secondary antibodies coupled to HRP (horseradish peroxidase) were obtained from Thermo Scientific.
. […] (B and C) As in (A) except cells were treated with the indicated doses of the BKM120 class I PI3K inhibitor.

Vps34 = details: cited from earlier work
[3] = tested on: NDRG1 phosphorylation at Thr346; assay: NDRG1 Thr346 phosphorylation, immunoblot of treated U2OS cells; assay type: cell-based; details: 1 h
Procedure: as §1, with “The cells were lysed in buffer containing 50 mM Tris/HCl (pH 7.5), 150 mM NaCl, 1 mM EDTA, 1 mM EGTA, 1 mM sodium orthovanadate, 10 mM sodium glycerophosphate, 50 mM sodium fluoride, 10 mM sodium pyrophosphate, 0.27 M sucrose, 0.1% 2-mercaptoethanol, 1 mM benzamidine and 0.1 mM PMSF. Lysates were clarified by centrifugation at 16000 g for 10 min at 4°C.” left out, “Scientific).” for “Scientific). Immunoblotting and immunoprecipitation were performed using standard procedures. The signal was developed using the ECL Western Blotting Detection kit (GE Healthcare) on Hyperfilm ECL film (GE Healthcare).”

[4] = tested on: PtdIns(3,4,5)P3/PtdIns(3,4)P2 (GFP–PHAkt1 probe) in U2OS cells; assay: IGF1-induced plasma membrane recruitment of GFP–PHAkt1 in U2OS cells; details: 1 μM VPS34-IN1 or 0.5 μM GDC-0941 for 1 h, IGF 100 ng/ml 15 min
Procedure: (§2) Cells were cultured on glass coverslips and processed for immunocytochemistry using standard protocols. […] For experiments quantifying co-localization of SGK3–GFP with EEA1 (early endosome antigen 1) and localization GFP–FYVEHrs in response to inhibitor treatment, cells were permeabilized via one freeze–thaw cycle in liquid nitrogen and subsequently fixed. The following primary antibodies were used: rabbit anti-EEA1 (1:500 dilution; Life Technologies) and mouse anti-GFP (1:1000 dilution; Life Technologies) antibodies. […] Imaging was conducted using a Nikon Eclipse Ti-S microscope (×40 objective) or a Zeiss LSM710 laser scanning confocal microscope [×63 Plan-Apochromat oil immersion objective; 1.40 NA (numerical aperture)] as described in the Figure legends. Time-lapse microscopy was carried out on the same microscope using a heated incubator, heated stage plate and CO2 controller (Pecon) to maintain the cells.
(§3) Time-lapse microscopy was performed on Zeiss 710 microscope using ×63 objective. […] The cells were fixed with 4% paraformaldehyde and images were taken using Zeiss 710 microscope at ×63 objective.

[5] = tested on: SGK3 localization on endosomes in U2OS cells; assay: SGK3–GFP endosomal localization, time-lapse microscopy in U2OS cells
Procedure: as §2
Images were acquired every 0.5 min up to 60 min. […] Post-acquisition, image analysis was conducted with Volocity 6.3 (PerkinElmer).
Images were taken using a Nicon Eclipse Ti-S microscope with ×40 objective (upper panel). […] Pictures were taken with Zeiss 710 microscope using ×100 objective. Mander's correlation coefficient in 112 cells was calculated using the Volocity 6.3 program. […] Time-lapse microscopy was performed on Zeiss 710 microscope using ×63 objective. Representative images are shown and similar results were obtained in two experiments.

[6] = tested on: endosomal PtdIns(3)P (GFP–2×FYVEHrs probe) in U2OS cells; assay: GFP–2×FYVEHrs probe localization, live imaging (time-lapse) in U2OS cells
Procedure: as §2
Images were acquired every 0.5 min up to 60 min. Inhibitors were added after acquiring two images, except for VPS34-IN1 that was added after the first image taken. Post-acquisition, image analysis was conducted with Volocity 6.3 (PerkinElmer).
as §3

[7] = tested on: SGK3 phosphorylation (Thr320, Ser486); assay: SGK3 T-loop and hydrophobic motif phosphorylation, immunoblot of treated U2OS cells; assay type: cell-based; details: for SGK3 T-loop and hydrophobic motif phosphorylation: 1 h, U2OS, immunoblot
Procedure: as §1

[8] = tested on: ProQinase panel of 300 protein kinases; assay: ProQinase protein kinase profiling panel; assay type: biochemical; details: 1 μM, 300 kinases
Source text: Supplementary Figure Legends
technology. The assay conditions are described at
activity in DMSO control.

[9] = tested on: panel of 19 lipid kinases (includes class I PI3Ks); assay: Dundee lipid kinase profiling panel; assay type: biochemical; details: 1 μM
[10] = tested on: endosomal PtdIns(3)P (GFP–2×FYVEHrs probe) in U2OS cells; assay: GFP–2×FYVEHrs probe localization on endosomes, fixed U2OS cells; assay type: cell-based; details: for loss of endosomal localization of GFP–2×FYVEHrs: 1 h
Procedure: U20S cell line was kindly provided by John Rouse (MRC Protein Phosphorylation and Ubiquitylation Unit, University of Dundee, Dundee, U.K.). […] The virus was harvested 48 h after transfection and applied to U20S cells in the presence of 10 μg/ml polybrene. Cells were selected with 10 μg/ml puromycin before single cell colony selection to identify low expression GFP–FYVEHrs clones. U2OS Flp/In cell line was kindly provided by John Rouse. Cells were cultured in McCoy medium supplemented with 10% (v/v) FBS, 2 mM L-glutamine, 100 U/ml penicillin and 0.1 mg/ml streptomycin. Stable cell lines expressing doxycycline-inducible proteins were generated using the Flp-In™ T-REx™ system (Invitrogen). Stable transfected clones were selected using 0.01 mM hygromycin in cell medium. Protein expression was induced by adding 0.01 mg/ml doxycycline in the medium for 24 h prior to cell lysis. Inhibitor treatment was carried out as described in the Figure legends. The cells were lysed in buffer containing 50 mM Tris/HCl (pH 7.5), 150 mM NaCl, 1 mM EDTA, 1 mM EGTA, 1 mM sodium orthovanadate, 10 mM sodium glycerophosphate, 50 mM sodium fluoride, 10 mM sodium pyrophosphate, 0.27 M sucrose, 0.1% 2-mercaptoethanol, 1 mM benzamidine and 0.1 mM PMSF. Lysates were clarified by centrifugation at 16000 g for 10 min at 4°C. Protein concentration was calculated using Bradford assay (Thermo Scientific). Immunoblotting and immunoprecipitation were performed using standard procedures. The signal was developed using the ECL Western Blotting Detection kit (GE Healthcare) on Hyperfilm ECL film (GE Healthcare).
Cells were cultured on glass coverslips and processed for immunocytochemistry using standard protocols. […] For experiments quantifying co-localization of SGK3–GFP with EEA1 (early endosome antigen 1) and localization GFP–FYVEHrs in response to inhibitor treatment, cells were permeabilized via one freeze–thaw cycle in liquid nitrogen and subsequently fixed. […]
The average cell fluorescence was calculated by dividing total fluorescence of each field by the number of the cells in the field. […]

[11] = tested on: Dundee panel of 140 protein kinases; assay: Dundee protein kinase profiling panel; details: 1 μM, 140 kinases
Procedure: (C) Protein kinase profiling of the VPS34-IN1 at a single concentration of 1 μM carried out against the Dundee panel of 140 protein kinases at the International Centre for Protein Kinase Profiling. […] Abbreviations and assay conditions used for each kinase are defined at http://www.kinase-screen.mrc.ac.uk.

SGK2 = SGK2 kinase activity after immunoprecipitation from inhibitor-treated U2OS cells; details: 1 h, U2OS expressing SGK2
Procedure: In vitro kinase activity of SGK3 and SGK2 was assayed by measuring [γ-^32P]ATP incorporation into Crosstide substrate peptide [[sequence]]. SGK3 with a C-terminal FLAG-tag was immunoprecipitated from doxycycline-induced U2OS Flp/In cell lines. Immunoprecipitates were washed in sequence with lysis buffer containing high salt concentration (500 mM NaCl), lysis buffer and buffer A (50 mM Tris/HCl, pH 7.5, and 0.1 mM EGTA). Reactions were carried in 40 μl of total volume containing 0.1 mM [γ-^32P]ATP (400–1000 c.p.m./pmol), 10 mM magnesium acetate and 30 μM Crosstide peptide. Reactions were terminated by adding 10 μl of 0.1 mM EDTA and spotting 40 μl of the reaction mixture on P81 paper which were immediately immersed into 50 mM orthophosphoric acid. Papers were washed several times in 50 mM orthophosphoric acid, rinsed in acetone and air dried. Radioactivity was quantified by Cerenkov counting. One unit of enzyme activity was defined as the amount of enzyme that catalyses incorporation of 1 nmol of [γ-^32P]ATP into the substrate over 1 min.
The cells were lysed and SGK3 immunoprecipitated with anti-FLAG antibody. […]

Compound: COc1ccc(-c2ccc3c(N4CCOC[C@@H]4C)nc(N4CCOC[C@@H]4C)nc3n2)cc1CO [AZD8055]
- phosphorylation of 4EBP1 at sites phosphorylated by mTORC1 [1]: marked dephosphorylation

Compound: Nc1cc(C(F)(F)F)c(-c2cc(N3CCOCC3)nc(N3CCOCC3)n2)cn1 [BKM120]
- inhibition at 0.5 µM (SGK3; Homo sapiens, U2OS, 1 h, read-out: inhibition of SGK3 activity by class I PI3K inhibitor): ~40%
- Akt phosphorylation at Ser473 and Thr308 [2]: near basal levels
- phosphorylation of Akt substrate PRAS40 (Thr246) [2]: near basal levels
- phosphorylation of 4EBP1 at sites phosphorylated by mTORC1 [1]: lack of effect
- inhibition of Vps34 (Vps34): do not inhibit

Compound: CS(=O)(=O)N1CCN(Cc2cc3nc(-c4cccc5[nH]ncc45)nc(N4CCOCC4)c3s2)CC1 [GDC-0941, 2-(1H-indazol-4-yl)-6-(4-methanesulfonyl-piperazin-1-ylmethyl)-4-morpholin-4-yl-t hieno[3,2-d]pyrimidine, reference compound]
- effect on SGK3 activity and phosphorylation at 1 min (SGK3; 0.5 μM GDC-0941, 1 min time point): little effect
- time to near maximal inhibition of SGK3 activity (SGK3; 0.5 μM GDC-0941, time course): 2 min
- Akt phosphorylation at Ser473 and Thr308 [2]: near basal levels
- phosphorylation of Akt substrate PRAS40 (Thr246) [2]: near basal levels
- NDRG1 phosphorylation at Thr346 [3]: significantly suppressed
- phosphorylation of 4EBP1 at sites phosphorylated by mTORC1 [1]: lack of effect
- inhibition of Vps34 (Vps34): do not inhibit
- effect on IGF1-induced plasma membrane recruitment of GFP–PHAkt1 [4]: blocked
- effect on SGK3 localization on endosomes ([5]; 0.5 μM GDC-0941 alone or with 1 μM VPS34-IN1, time-lapse): did not change significantly
- effect on endosomal localization of GFP–2×FYVEHrs ([6]; 0.5 μM GDC-0941 alone or with 1 μM VPS34-IN1, up to 60 min, live imaging): had no effect

Compound: CNc1nc(-c2ccc3c(N)n[nH]c3c2)cc(N2C[C@@H](C(=O)NC3CCCCC3)CC[C@H]2C)n1 [GSK2334470, reference compound]
- SGK3 activity after PDK1 inhibitor (SGK3; 1 μM, 1 h, U2OS): near basal levels
- SGK3 T-loop and hydrophobic motif phosphorylation [7]: near basal levels

Compound: CC(C)(O)CNc1ncc(-c2ccnc(Nc3ccnc(Cl)c3)n2)c(CC2CC2)n1 [VPS34-IN1, 1-[{2-[(2-chloropyridin-4yl)amino]-4′-(cyclopropylmethyl)-[4,5′-bipyrimidin]-2′-yl}amino]-2-methyl-propan-2-ol]
- inhibition of protein kinases, ProQinase panel [8]: did not significantly inhibit
- inhibition of lipid kinases, Dundee panel [9]: did not significantly inhibit
- effect on GFP–2×FYVEHrs localization ([10]; 0.01 μM): weak effect
- loss of endosomal localization of GFP–2×FYVEHrs ([10]; 0.1 μM): ~ 50%
- loss of endosomal localization of GFP–2×FYVEHrs ([10]; 1.0 μM): ~ 80%
- reduction in SGK3 activity (SGK3; 0.1 μM VPS34-IN1, 1 h, U2OS): ~ 40%
- reduction in SGK3 activity (SGK3; 1 μM VPS34-IN1, 1 h, U2OS): ~ 60%
- time to 50% reduction of SGK3 activity (SGK3; 1 μM VPS34-IN1, time course): ≤ 15 s
- time to maximal suppression of SGK3 activity (SGK3; 1 μM VPS34-IN1, time course): ≤ 1 min
- decrease in SGK3 activity on VPS34-IN1 treatment (SGK3; U2OS, concentration not given): 50–60%
- time to nearly maximal reduction in SGK3 activity and phosphorylation (SGK3; VPS34-IN1, as stated in Discussion): ≤ 30 s
- SGK3 T-loop and hydrophobic motif phosphorylation [7]: commensurate decrease
- loss of SGK3 phosphorylation ([7]; within 1 min): 50–60%
- Akt phosphorylation at Ser473 and Thr308 [2]: had no effect
- phosphorylation of Akt substrate PRAS40 (Thr246) [2]: had no effect
- NDRG1 phosphorylation at Thr346 [3]: only affected moderately
- inhibition of protein kinases, Dundee panel [11]: did not significantly inhibit
- effect on IGF1-induced plasma membrane recruitment of GFP–PHAkt1 [4]: had no impact
- time to dispersal of SGK3 from the endosomes ([5]; 1 μM, time-lapse, U2OS): ≤ 1 min
- time until dispersal of endosome-localized GFP–SGK3 is essentially complete ([5]; live cell imaging, U2OS): 60 to 120 s
- time to near maximal dispersal of endosomal GFP–2×FYVEHrs ([6]; 1 μM, live imaging, U2OS): ≤ 2 min
- time to significant dispersal of endosomal GFP–2×FYVEHrs ([6]; 1 μM, live imaging, U2OS): ≤ 1 min
- time until dispersal of endosome-localized GFP–2×FYVEHrs is essentially complete ([6]; live cell imaging, U2OS): 60 to 120 s
- inhibition of SGK2 activity (SGK2): did not inhibit
